Experimental data: US10105380B2, “Glycoclusters and their pharmaceutical use as antibacterials” (priority 2013, dated 2018)

Molecular target: T1, PA-IL (Pseudomonas aeruginosa, UniProt Q05097)
Assay: Kd determination on DDI microarray (Langmuir isotherm, Scatchard plot)
Format: binding
Details: DNA-tagged galactoclusters G1-G24 on glycoarray
Description: The methodologies for Kd and IC50 value determination have been previously reported (Gerland, B. et al., (2012) Bioconjugate Chem. 23, 1534-1547; Zhang, J. et al., (2009) Chem. Comm., 6795-6797; Zhang, J. et al., (2009) Biosens. Bioelectron. 24, 2515-2521).
CaCl2 (1 μg/mL final concentration) was added. PA-IL at the desired final concentration was then added. 2 μL of each solution (corresponding to the desired PA-IL concentration) were poured in the corresponding microwells. The slide was incubated (3 h, 37° C.) in a water vapor saturated chamber and finally washed in PBS-Tween 20 (0.02%, 5 min, 4° C.) and dried. A Microarray scanner, GenePix 4100A software package (Axon Instruments; λex 532/635 nm and λem 575/670 nm) was used for fluorescent imaging of both fluorophore (Cy3 and Alexa 647). The average of the mean fluorescence signal was calculated from eight spots. The resulting Langmuir Isotherms were linearised using Scatchard plot to give the Kd values at the ordonnate intercept.

T1 sequence (Q05097 2-122): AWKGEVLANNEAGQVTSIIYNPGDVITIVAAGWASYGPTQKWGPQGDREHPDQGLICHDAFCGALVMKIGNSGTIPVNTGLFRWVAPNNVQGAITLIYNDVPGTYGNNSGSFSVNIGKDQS

| Substance | Kd [µM] |
| --- | --- |
| Man(PSEG3MTzAcNPh-Gal)4 [G4] | 0.076 |
| Man(PSEG3MTzAcNPh-SGal)4 [G12] | 0.07 |
| Man(EG2MTzAcNPhe-CH2-SGal)4 [G13] | 0.085 |
| Man(EG3MTzAcNPh-SGal)4 [G11] | 0.049 |
| Man(PSEG3MTzproNCONapht-OGal)4 [G24] | 0.031 |
| Man(EG3MTzAcNPhe-CH2-SGal)4 [G15] | 0.076 |
| Man(PSEG3MTzAcNPhe-CH2-Gal)4 [G8] | 0.125 |
| Man(PSEG2MTzAcNPh-SGal)4 [G10] | 0.055 |
| Man(PSEG2MTzAcNPhe-CH2-SGal)4 [G14] | 0.071 |
| Man(PSEG3MTzAcNPhe-CH2-SGal)4 [G16] | 0.075 |
| Man(EG2MTzproNCOBisphe-OGal)4 [G17] | 0.02 |
| Man(PSEG2MTzAcNPhe-CH2-Gal)4 [G6] | 0.17 |
| Man(PSEG3MTzproNCOBisphe-OGal)4 [G20] | 0.043 |
| Man(EG2MTzproNCONapht-OGal)4 [G21] | 0.014 |

Molecular target: T1, PA-IL
Assay: not given
Format: binding
Details: DNA-tagged galactoclusters G1-G24 on glycoarray; read-out: IC50
Description: IC50 Determination with “on Chip” Biological Recognition
Lectin PA-IL (0.12 μM final concentration), BSA (2% final concentration) and CaCl2 (1 μg/mL final concentration) was diluted in PBS1× (pH=7.4). In each micro tube was added the inhibitor lactose at the desired final concentration (0; 1.10^−5; 1.10^−4; 5.10^−4; 1.10^−3; 5.10^−3; 1.10^−2; 5.10^−2; 0.1; 1; 5; 10; 50; 10^2; 5.10^2; 10^3; 5.10^3; 10^4; 10^5; 3.10^5).
2 μL of each solution were deposited in the corresponding microwells and the slide was incubated at 37° C. in a water vapor saturated chamber for 3 h. The washing steps are: PBS-Tween0.2% 5 min at 4° C., then briefly in deionized water and dried by centrifugation.
Slide was scanned at 532 nm then at 635 nm with the Microarray scanner, GenePix 4100A software package (Axon Instruments; λex 532/635 nm and λem 575/670 nm). The fluorescence signal of each conjugate was determined as the average of the mean fluorescence signal of sixty-four spots.
IC50 values were determined using “BioDataFit 1.02 program”. The model chosen was “Sigmoidal”: Y=a+(b−a)/[1+10^(x−c)]
with a=FImin, b=FImax, x=[…] and c=log(IC50). FImin/max is the minimum/maximum Alexa-647 fluorescence signal observed for a galactomimetic.
So the IC50 value was called IC50Lac.

| Substance | IC50 [µM] |
| --- | --- |
| Man(PSEG3MTzAcNPh-Gal)4 [G4] | 17700 |
| Man(PSEG3MTzAcNPh-SGal)4 [G12] | 19700 |
| Man(EG2MTzAcNPhe-CH2-SGal)4 [G13] | 12000 |
| Man(EG3MTzAcNPh-SGal)4 [G11] | 63900 |
| Man(EG3MTzAcNPhe-CH2-SGal)4 [G15] | 13300 |
| Man(PSEG3MTzAcNPhe-CH2-Gal)4 [G8] | 8400 |
| Man(PSEG2MTzAcNPh-SGal)4 [G10] | 38200 |
| Man(PSEG2MTzAcNPhe-CH2-SGal)4 [G14] | 18500 |
| Man(PSEG3MTzAcNPhe-CH2-SGal)4 [G16] | 18100 |
| Man(PSEG2MTzAcNPhe-CH2-Gal)4 [G6] | 5700 |
| Man(PSEG3MTzproNCOBisphe-OGal)4 [G20] | 81600 |
